# Data: patent EP0048614B1, “1-N-acylated and 1-N-alkylated derivatives of 4-0-substituted -2-deoxystreptamine aminoglycosides” (ELI LILLY AND COMPANY, priority 1980, dated 1982)
# Assays:
# [1] = test system: Streptococcus pneumoniae Park I; assay: MIC, standard agar dilution test; assay type: cell-based; settings: Streptococcus pneumoniae; read-out: Minimum Inhibitory Concentration
# Text: (§1) The antibacterial activity of the deprotected compounds of this invention is illustrated by the following in vitro and in vivo test data obtained with representative compounds. In Table I, the minimum inhibitory concentration (MIC) for representative compounds against a wide range of gram-positive and gram-negative bacteria is presented. The MIC values were obtained by the standard agar dilution test.
# [2] = test system: Enterobacter aerogenes X68; assay: MIC, standard agar dilution test; assay type: cell-based; settings: Klebsiella aerogenes, X68, read-out: Minimum Inhibitory Concentration, Enterobacter aerogenes X68
# Text: as §1
# [3] = test system: Staphylococcus epidermidis EPI2; assay: MIC, standard agar dilution test; assay type: cell-based; settings: Staphylococcus epidermidis, EPI2, read-out: Minimum Inhibitory Concentration
# Text: as §1
# Escherichia coli EC14 = assay: MIC, standard agar dilution test; assay type: cell-based; settings: Escherichia coli EC14; agar dilution; read-out: Minimum Inhibitory Concentration
# Text: as §1
# [4] = test system: Staphylococcus aureus S13E; assay: MIC, standard agar dilution test; assay type: cell-based; settings: read-out: Minimum Inhibitory Concentration
# Text: as §1
# Escherichia coli N10 = assay: MIC, standard agar dilution test; assay type: cell-based; settings: Escherichia coli, N10, Escherichia coli N10; agar dilution; read-out: Minimum Inhibitory Concentration
# Text: as §1
# [5] = test system: Klebsiella pneumoniae KAE; assay: MIC, standard agar dilution test; assay type: cell-based; settings: Klebsiella pneumoniae, read-out: Minimum Inhibitory Concentration
# Text: as §1
# [6] = test system: Staphylococcus aureus X400; assay: MIC, standard agar dilution test; assay type: cell-based; settings: Staphylococcus aureus, X400, read-out: Minimum Inhibitory Concentration, Staphylococcus aureus X400
# Text: as §1
# Serratia marcescens SE3 = assay: MIC, standard agar dilution test; assay type: cell-based; settings: Serratia marcescens, SE3, read-out: Minimum Inhibitory Concentration
# Text: as §1
# Enterobacter cloacae EB5 = assay: MIC, standard agar dilution test; assay type: cell-based; settings: Enterobacter cloacae, EB5, read-out: Minimum Inhibitory Concentration
# Text: as §1
# [7] = test system: Streptococcus pyogenes C203; assay: MIC, standard agar dilution test; assay type: cell-based; settings: Streptococcus pyogenes, C203, read-out: Minimum Inhibitory Concentration
# Text: as §1
# [8] = test system: Enterobacter aerogenes EB17; assay: MIC, standard agar dilution test; assay type: cell-based; settings: Klebsiella aerogenes, EB17, read-out: Minimum Inhibitory Concentration
# Text: as §1
# Proteus morganii PR15 = assay: MIC, standard agar dilution test; assay type: cell-based; settings: Morganella morganii, PR15, read-out: Minimum Inhibitory Concentration
# Text: as §1
# Proteus rettgeri PR7 = assay: MIC, standard agar dilution test; assay type: cell-based; settings: Providencia rettgeri, PR7, read-out: Minimum Inhibitory Concentration, Proteus rettgeri PR7
# Text: as §1
# [9] = test system: Staphylococcus epidermidis EPI1; assay: MIC, standard agar dilution test; assay type: cell-based; settings: Staphylococcus epidermidis, EPI1; read-out: Minimum Inhibitory Concentration
# Text: as §1
# [10] = test system: Staphylococcus aureus X1.1; assay: MIC, standard agar dilution test; assay type: cell-based; settings: Staphylococcus aureus, X1.1, read-out: Minimum Inhibitory Concentration
# Text: as §1
# [11] = test system: Pseudomonas aeruginosa X528; assay: MIC, standard agar dilution test; assay type: cell-based; settings: Pseudomonas aeruginosa, X528, read-out: Minimum Inhibitory Concentration
# Text: as §1
# [12] = test system: Enterobacter cloacae 265A; assay: MIC, standard agar dilution test; assay type: cell-based; settings: Enterobacter cloacae, 265A, read-out: Minimum Inhibitory Concentration
# Text: as §1
# [13] = test system: Citrobacter freundii CF17; assay: MIC, standard agar dilution test; assay type: cell-based; settings: Citrobacter freundii, CF17, read-out: Minimum Inhibitory Concentration
# Text: as §1
# [14] = test system: Salmonella heidelberg X514; assay: MIC, standard agar dilution test; assay type: cell-based; settings: Salmonella enterica, X514, read-out: Minimum Inhibitory Concentration
# Text: as §1
# Escherichia coli TEM = assay: MIC, standard agar dilution test; assay type: cell-based; settings: read-out: Minimum Inhibitory Concentration
# Text: as §1
# [15] = test system: Klebsiella pneumoniae X26; assay: MIC, standard agar dilution test; assay type: cell-based; settings: Klebsiella pneumoniae, X26, read-out: Minimum Inhibitory Concentration
# Text: as §1
# [16] = test system: Streptococcus group D 9960; assay: MIC, standard agar dilution test; assay type: cell-based; settings: D9960, read-out: Minimum Inhibitory Concentration
# Text: as §1
# Proteus inconstans PR33 = assay: MIC, standard agar dilution test; assay type: cell-based; settings: Providencia alcalifaciens, PR33, read-out: Minimum Inhibitory Concentration
# Text: as §1
# [17] = test system: Pseudomonas aeruginosa X239; assay: MIC, standard agar dilution test; assay type: cell-based; settings: Pseudomonas aeruginosa, X239, read-out: Minimum Inhibitory Concentration
# Text: as §1
# [18] = test system: Hemophilus influenzae C.L.; assay: MIC, standard agar dilution test; assay type: cell-based; settings: Haemophilus influenzae, read-out: Minimum Inhibitory Concentration, Hemophilus influenzae C.L.
# Text: as §1
# [19] = test system: Salmonella typhimurium 1335; assay: MIC, standard agar dilution test; assay type: cell-based; settings: Salmonella enterica, TYPHIMURIUM, read-out: Minimum Inhibitory Concentration
# Text: as §1
# [20] = test system: Staphylococcus aureus V41; assay: MIC, standard agar dilution test; assay type: cell-based; settings: Staphylococcus aureus, V41, read-out: Minimum Inhibitory Concentration
# Text: as §1
# Shigella sonnei N9 = assay: MIC, standard agar dilution test; assay type: cell-based; settings: read-out: Minimum Inhibitory Concentration
# Text: as §1
# [21] = test system: Enterobacter aerogenes C32; assay: MIC, standard agar dilution test; assay type: cell-based; settings: Klebsiella aerogenes, C32, read-out: Minimum Inhibitory Concentration
# Text: as §1
# [22] = test system: Pseudomonas aeruginosa Ps18; assay: MIC, standard agar dilution test; assay type: cell-based; settings: Pseudomonas aeruginosa, PS18, read-out: Minimum Inhibitory Concentration
# Text: as §1
# Proteus rettgeri C24 = assay: MIC, standard agar dilution test; assay type: cell-based; settings: Providencia rettgeri, C24, read-out: Minimum Inhibitory Concentration
# Text: as §1
# [23] = test system: Bordetella bronchiseptica 16; assay: MIC, standard agar dilution test; assay type: cell-based; settings: Bordetella bronchiseptica, 16, read-out: Minimum Inhibitory Concentration
# Text: as §1
# [24] = test system: Streptococcus group D X66; assay: MIC, standard agar dilution test; assay type: cell-based; settings: DX66, read-out: Minimum Inhibitory Concentration
# Text: as §1
# Serratia marcescens X99 = assay: MIC, standard agar dilution test; assay type: cell-based; settings: Serratia marcescens, X99, read-out: Minimum Inhibitory Concentration, Serratia marcescens X99
# Text: as §1
# Hemophilus influenzae 76 = assay: MIC, standard agar dilution test; assay type: cell-based; settings: Haemophilus influenzae, 76, read-out: Minimum Inhibitory Concentration, Hemophilus influenzae 76
# Text: as §1
# [25] = test system: Staphylococcus aureus 3055; assay: Subcutaneous therapy of experimental bacterial infection in mice (ED50); assay type: in vivo; settings: Staphylococcus aureus, 3055, sc, read-out: Effective Dose (ED50), mg/kg × 2 subcutaneous doses at 1 and 5 hours post infection; mice challenged with 68.1 LD50's
# Description: Table II illustrates the effective dose (ED50, the effective dose to protect 50 percent of the test animals) for representative compounds of this invention against an experimental bacterial infection in mice.
# The ED50 values were determined as described by W. E. Wick et al., Journal of Bacteriology, 81 [No. 2], 233-235 (1961).
# Escherichia coli X563 = assay: Standard disc-plate method, zone of inhibition against apramycin-resistant strain; assay type: cell-based; settings: apramycin-resistant E. coli X563, one value for each of two test runs per compound
# Text: Table III, shown below, illustrates the in vitro activity of 1-N-(S-y-amino-a-hydroxybutyryl)apramycin, 1-N-(RS-y-amino-a-hydroxybutyryl)apramycin, and 1-N-(S-y-amino-a-hydroxybutyryl)nebramine against an apramycin resistant strain of E. coli. The results below were obtained using the standard disc-plate method. The numerical values are the diameters in millimeters of the zones of inhibition observed against this bacterium. Compounds substituted with the y-amino-a-hydroxybutyryl and analogous side chains are useful in treating infections caused by apramycin resistant bacteria such as the one above.
# The test organism (E. coli X563) used in the experiments summarized in Table III is resistant to apramycin due to a 3-N-acetyltransferase which enzymatically inactivates apramycin.
smiles,measurement,setting,value
"CNC1C(OC2OC(CO)C(N)C(O)C2O)OC2CC(N)C(OC3C(N)CC(NC(=O)C(O)CCN)C(O)C3O)OC2C1O (stereo not drawn) [Test Compound 1, 1-N-(S-γ-amino-α-hydroxybutyryl)apramycin]",MIC,[1],64 mg/L
same,MIC,[2],8 mg/L
same,MIC,[3],4 mg/L
same,MIC,Escherichia coli EC14,16 mg/L
same,MIC,[4],16 mg/L
same,MIC,Escherichia coli N10,8 mg/L
same,MIC,[5],16 mg/L
same,MIC,[6],32 mg/L
same,MIC,Serratia marcescens SE3,16 mg/L
same,MIC,Enterobacter cloacae EB5,16 mg/L
same,MIC,[7],64 mg/L
same,MIC,[8],16 mg/L
same,MIC,Proteus morganii PR15,128 mg/L
same,MIC,Proteus rettgeri PR7,8 mg/L
same,MIC,[9],8 mg/L
same,MIC,[10],8 mg/L
same,MIC,[11],64 mg/L
same,MIC,[12],32 mg/L
same,MIC,[13],16 mg/L
same,MIC,[14],16 mg/L
same,MIC,Escherichia coli TEM,4 mg/L
same,MIC,[15],8 mg/L
same,MIC,[16],> 128 mg/L
same,MIC,Proteus inconstans PR33,8 mg/L
same,MIC,[17],64 mg/L
same,MIC,[18],16 mg/L
same,MIC,[19],16 mg/L
same,MIC,[20],16 mg/L
same,MIC,Shigella sonnei N9,16 mg/L
same,MIC,[21],8 mg/L
same,MIC,[22],128 mg/L
same,MIC,Proteus rettgeri C24,8 mg/L
same,MIC,[23],64 mg/L
same,MIC,[24],> 128 mg/L
same,MIC,Serratia marcescens X99,8 mg/L
same,MIC,Hemophilus influenzae 76,16 mg/L
same,ED50,[25],< 4.35 mg/kg
same,Zone of Inhibition (diameter in mm),"Escherichia coli X563; 15 mcg/disc, listed as 1",14.7 mm
same,zone of inhibition at 15 µg/disc,"Escherichia coli X563; Escherichia coli, X563, read-out: Zone of Inhibition (diameter in mm), 15 mcg/disc",12.4 mm
